Results on 42 compounds are retold here after patent publication US20230014907A1, “INHIBITORS OF APOL1 AND METHODS OF USING SAME” (Vertex Pharmaceuticals Incorporated, priority 2020, published 2023).

Structures are written as SMILES.

This test concerns the target T1, G1 APOL1 (Homo sapiens, UniProt O14791, I384M/S342G).
T1 construct: expressed in transfected cells
T1 sequence (O14791 28-398 S342G/I384M): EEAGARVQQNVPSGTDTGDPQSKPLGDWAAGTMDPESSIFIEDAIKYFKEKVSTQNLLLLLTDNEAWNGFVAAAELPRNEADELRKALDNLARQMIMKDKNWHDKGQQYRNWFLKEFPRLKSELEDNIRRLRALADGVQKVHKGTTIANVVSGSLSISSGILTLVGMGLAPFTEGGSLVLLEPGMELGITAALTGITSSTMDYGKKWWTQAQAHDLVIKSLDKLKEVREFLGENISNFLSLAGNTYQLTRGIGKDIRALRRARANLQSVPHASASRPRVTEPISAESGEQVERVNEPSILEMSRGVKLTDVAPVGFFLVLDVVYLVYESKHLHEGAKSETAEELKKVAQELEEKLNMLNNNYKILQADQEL
The test can be described thus: Acute APOL1 Thallium Assay with Inducible Stable Clones of HEK 293 Cells. The note with it: HEK 293 inducible stable clones, G1 APOL1; read-out: Thallium Assay (IC50). It is filed as cell-based. The text has this:
Acute APOL1 Thallium Assay with Inducible Stable Clones of HEK 293 Cells
Apolipoprotein L1 (APOL1) proteins form potassium-permeable cation pores in the plasma membrane. APOL1 risk variants (G1 and G2) induce greater potassium flux than G0 in HEK293 cells. This assay exploits the permeability of thallium (Tl+) through ligand-gated potassium channels. The dye produces a bright fluorescent signal upon binding to Tl+ conducted through potassium channels. The intensity of the Tl+ signal is proportional to the number of potassium channels in the open state. Therefore, it provides a functional indication of the potassium channel activities. During the initial dye-loading step, the Tl+ indicator dye as an acetoxymethyl (AM) ester enters the cells through passive diffusion. Cytoplasm esterases cleave the AM ester and relieve its active thallium-sensitive form. The cells are then stimulated with Tl+. The increase of fluorescence in the assay represents the influx of Tl+ into the cell specifically through the potassium channel (i.e. through APOL1 pores), providing a functional measurement of potassium channel/pore activity. The Thallium assay is conducted with cells expressing G1 APOL1.
APOL1 Cell Line (HEK T-Rex Stable Inducible Cell Line) • HEK T-Rex System • Tetracycline (Tet) inducible mammalian expression system. • Stably express the Tet repressor to regulate transcription. • Expression under the full-length CMV promoter. • APOL1 stable inducible cell line Clone used: G1 DC3.25
Tissue Culture Media • Cell Culture Medium • DMEM+10% FBS+P/S+5 μg/mL blasticidin+1 μg/mL puromycin. • 500 mL DMEM+55 mL FBS+5 mL P/S+280 μL blasticidin S HCl (10 mg/mL)+56 μL puromycin (10 mg/mL). • Cell Assay Medium • DMEM with 2% FBS+penicillin/streptomycin.
Instruments and Equipment • Nuaire cell culture hood, Cat. No. 540-600 • 37° C./5% CO2 incubator link to robotic arm, Liconic: STX110 • Molecular Devices FLIPR^Tetra High throughput cellular screening system, Cat. No. FT0324, Molecular Devices • ThermoFisher MultiDrop 384, Cat. No. 5840300 • Biotek Microfill, Cat. No. ASF1000A-4145 • BioRad TC10 cell counter, Cat. No. 145-0010
Cells Scaled Up from Frozen Vials • APOL1 G1 3.25 (HEK293 T-Rex) frozen vials: 5 million cells per vial • Step 1, Day 1: Defrost frozen vial into T-225. • Step 2, Day 5: (when 85% confluent): Split one T-225 at 3×10^6 cells per flask. • Step 3, Day 8: Splits cells to set up for the assay plates as described below.
T-Rex APOL1 HEK cells are split twice per week to keep the confluence state below 85% of the culture flask surface area. Cells can be kept until passage 25. • Cell Culture Medium • DMEM high glucose+10% FBS, +P/S, +5 μg/mL blasticidin, +1 μg/mL puromycin. • 500 mL DMEM, +55 mL FBS, +5 mL P/S, +280 μL blasticidin 10 mg/mL, +56 μL Puromycin 10 mg/mL. • Assay Media • Opti-MEM reduced serum medium from Invitrogen.
Preparation of Cell Assay Plates • Culture medium is removed from the x cm^2 T-flask by aspiration. • The cell monolayer is rinsed with PBS 1× at room temperature. PBS is removed by aspiration. • Cells are trypsinized using Trypsin. • The flasks are incubated at room temperature for 2-3 minutes. • Complete DMEM medium is then added. Cell suspension is then transferred to a 50 mL Falcon polypropylene tube. • Cells are then counted using a BioRad TC10 cell counter and the required amount of cells are centrifuged at 1200 RPM for 5 minutes. Required amount is 1.3×10^6 cells/mL APOL1 T-Rex HEK cells. • The pellet is suspended in the assay medium. • Using the MultiDrop, add 20 μL to each well (corresponds to 26000 cells total per well) of a 384-well black, transparent, flat bottom Poly-D coated plate. • Tetracycline as prepared in the following section is added to the cells before plating to induce APOL1 expression. • Plates are left at room temperature for 20 to 30 minutes before incubation at 37° C. and 5% CO2. […]
Regarding `CC(C)(C)[C@H](CO)NC(=O)NCCc1c(-c2ccc(F)cc2)[nH]c2c(F)cc(F)cc12` [Compound 265], the IC50 was > 1000 nM.

Take `O=C(NCCc1c(-c2ccc(F)cc2)[nH]c2c(F)cc(F)cc12)NCC1(O)CCCC1` [Compound 266]: the 50% inhibitory concentration (IC50) was > 1000 nM.

`O=C(NCCc1c(-c2ccc(F)cc2)[nH]c2c(F)cc(F)cc12)NCC(O)C(F)F` (stereo not drawn) [Compound 267]: the 50% inhibitory concentration (IC50) is > 1000 nM.

`C[C@H](NC(=O)NCCc1c(-c2ccc(F)cc2)[nH]c2c(F)cc(F)cc12)C(C)(C)O` [Compound 268]: the IC50 was > 1000 nM.

Turning to `CC(C)[C@@H](CO)NC(=O)NCCc1c(-c2ccc(F)cc2)[nH]c2c(F)cc(F)cc12` [Compound 269], the IC50 is > 1000 nM.

Consider `CC(C)(O)CCNC(=O)NCCc1c(-c2ccc(F)cc2)[nH]c2c(F)cc(F)cc12` [Compound 270], for which the 50% inhibitory concentration (IC50) was > 1000 nM.

On to `O=C(NCCc1c(-c2ccc(F)cc2)[nH]c2c(F)cc(F)cc12)N[C@@H]1CC[C@H](O)C1` [Compound 272], for which the IC50 was > 1000 nM.

On to `O=C(NCCc1c(-c2ccc(F)cc2)[nH]c2c(F)cc(F)cc12)N[C@@H]1CC[C@@H](O)C1` [Compound 273], for which the half-maximal inhibitory concentration (IC50) was > 1000 nM.

Turning to `O=C(NCCc1c(-c2ccc(F)cc2)[nH]c2c(F)cc(F)cc12)NC1(CCO)CC1` [Compound 274], the IC50 is 250 to 1000 nM.

As to `O=C(NCCc1c(-c2ccc(F)cc2)[nH]c2c(F)cc(F)cc12)NCC1(O)CCC1` [Compound 275], the IC50 is > 1000 nM.

Consider `O=C(NCCc1c(-c2ccc(F)cc2)[nH]c2c(F)cc(F)cc12)NCC1(CO)CC1` [Compound 276], for which the IC50 was > 1000 nM.

In the case of `O=C(NCCc1c(-c2ccc(F)cc2)[nH]c2c(F)cc(F)cc12)N[C@H]1CCNC1=O` [Compound 277], the IC50 is > 1000 nM.

For the compound `CC(O)CCNC(=O)NCCc1c(-c2ccc(F)cc2)[nH]c2c(F)cc(F)cc12` (stereo not drawn) [Compound 278], the IC50 is > 1000 nM.

Consider `CC(C)(O)CNC(=O)NCCc1c(-c2ccc(F)cc2)[nH]c2c(F)cc(F)cc12` [Compound 279], for which the half-inhibitory concentration (IC50) was > 1000 nM.

Turning to `C[C@H](NC(=O)NCCc1c(-c2ccc(F)cc2)[nH]c2c(F)cc(F)cc12)C(=O)O` [Compound 281], the IC50 is > 1000 nM.

Regarding `C[C@H](CO)NC(=O)NCCc1c(-c2ccc(F)cc2)[nH]c2c(F)cc(F)cc12` [Compound 282], the half-inhibitory concentration (IC50) is 250 to 1000 nM.

Turning to `C[C@H](O)CNC(=O)NCCc1c(-c2ccc(F)cc2)[nH]c2c(F)cc(F)cc12` [Compound 284], the IC50 is > 1000 nM.

With `O=C(O)CNC(=O)NCCc1c(-c2ccc(F)cc2)[nH]c2c(F)cc(F)cc12` [Compound 285], the IC50 was > 1000 nM.

On to `O=C(NCCO)NCCc1c(-c2ccc(F)cc2)[nH]c2c(F)cc(F)cc12` [Compound 286], for which the IC50 was > 1000 nM.

In the case of `CS(=O)(=O)CCNC(=O)NCCc1c(-c2ccc(F)cc2)[nH]c2c(F)cc(F)cc12` [Compound 287], the IC50 was > 1000 nM.

As for `O=C(NCCc1ccncc1)NCCc1c(-c2ccc(F)cc2)[nH]c2c(F)cc(F)cc12` [Compound 288], the IC50 is > 1000 nM.

In the case of `O=C(NCCc1c(-c2ccc(F)cc2)[nH]c2c(F)cc(F)cc12)NCC1CC(F)(F)C1` [Compound 289], the half-maximal inhibitory concentration (IC50) is > 1000 nM.

Consider `O=C(NCCc1c(-c2ccc(F)cc2)[nH]c2c(F)cc(F)cc12)NCC1CCOCC1` [Compound 291], for which the IC50 is > 1000 nM.

For the compound `COCC1(CNC(=O)NCCc2c(-c3ccc(F)cc3)[nH]c3c(F)cc(F)cc23)CC1` [Compound 292], the IC50 is > 1000 nM.

Take `O=C(NCCc1c(-c2ccc(F)cc2)[nH]c2c(F)cc(F)cc12)NCC1CCCOC1` (stereo not drawn) [Compound 293]: the 50% inhibitory concentration (IC50) is > 1000 nM.

Take `CN1CC(NC(=O)NCCc2c(-c3ccc(F)cc3)[nH]c3c(F)cc(F)cc23)CC1=O` (stereo not drawn) [Compound 294]: the IC50 was > 1000 nM.

For the compound `Cc1occc1CNC(=O)NCCc1c(-c2ccc(F)cc2)[nH]c2c(F)cc(F)cc12` [Compound 295], the concentration for half-maximal inhibition (IC50) is > 1000 nM.

As to `O=C(NCCc1c(-c2ccc(F)cc2)[nH]c2c(F)cc(F)cc12)N1CCC[C@H]1CO` [Compound 296], the half-maximal inhibitory concentration (IC50) is > 1000 nM.

Consider `O=C(NCCc1c(-c2ccc(F)cc2)[nH]c2c(F)cc(F)cc12)NCC1CCCO1` (stereo not drawn) [Compound 297], for which the IC50 is > 1000 nM.

As for `CC1(CNC(=O)NCCc2c(-c3ccc(F)cc3)[nH]c3c(F)cc(F)cc23)COC1` [Compound 298], the IC50 was > 1000 nM.

Turning to `O=C(NCCc1c(-c2ccc(F)cc2)[nH]c2c(F)cc(F)cc12)NCc1ccoc1` [Compound 299], the IC50 was > 1000 nM.

On to `C[C@@H](CO)N(C)C(=O)NCCc1c(-c2ccc(F)cc2)[nH]c2c(F)cc(F)cc12` [Compound 300], for which the IC50 is > 1000 nM.

As for `CN(CCO)C(=O)NCCc1c(-c2ccc(F)cc2)[nH]c2c(F)cc(F)cc12` [Compound 302], the IC50 was > 1000 nM.

In the case of `C[C@@H](CO)NC(=O)N(C)CCc1c(-c2ccc(F)cc2)[nH]c2c(F)cc(F)cc12` [Compound 303], the half-inhibitory concentration (IC50) was > 1000 nM.

Consider `CC(C)(C)OC(=O)NC(CC(N)=O)C(=O)NCCc1c(-c2ccc(F)cc2)[nH]c2c(F)cc(F)cc12` (stereo not drawn) [Compound 304, tert-butyl N-[3-amino-1-[2-[5,7-difluoro-2-(4-fluorophenyl)-1H-indol-3-yl]ethylcarbamoyl]-3-oxo-propyl]carbamate], for which the half-inhibitory concentration (IC50) was 250 to 1000 nM.

In the case of `CC(C)(C)OC(=O)N[C@H](CO)C(=O)NCCc1c(-c2ccc(F)cc2)[nH]c2c(F)cc(F)cc12` [Compound 305, tert-butyl N-[(1R)-2-[2-[5,7-difluoro-2-(4-fluorophenyl)-1H-indol-3-yl]ethylamino]-1-(hydroxymethyl)-2-oxo-ethyl]carbamate], the 50% inhibitory concentration (IC50) is > 1000 nM.

With `O=C1N[C@@H](C(=O)NCCc2c(-c3ccc(F)cc3)[nH]c3c(F)cc(F)cc23)CO1` [Compound 306, (4R)—N-[2-[5,7-difluoro-2-(4-fluorophenyl)-1H-indol-3-yl]ethyl]-2-oxo-oxazolidine-4-carboxamide], the IC50 was > 1000 nM.

Take `CC(C)(C)OC(=O)N[C@@H](CCO)C(=O)NCCc1c(-c2ccc(F)cc2)[nH]c2c(F)cc(F)cc12` [Compound 307]: the half-maximal inhibitory concentration (IC50) is > 1000 nM.

In the case of `CC(C)(C)OC(=O)N[C@@H](CO)C(=O)NCCc1c(-c2ccc(F)cc2)[nH]c2c(F)cc(F)cc12` [Compound 308], the half-inhibitory concentration (IC50) was > 1000 nM.

Consider `O=C1CC(C(=O)NCCc2c(-c3ccc(F)cc3)[nH]c3c(F)cc(F)cc23)NC(=O)N1` (stereo not drawn) [Compound 309], for which the IC50 was > 1000 nM.

For the compound `O=C(NCCc1c(-c2ccc(F)cc2)[nH]c2c(F)cc(F)cc12)C(O)CO` (stereo not drawn) [Compound 310], the IC50 was in the range of 250 to 1000 nM.

As to `CC(C)(C)OC(=O)NC1(C(=O)NCCc2c(-c3ccc(F)cc3)[nH]c3c(F)cc(F)cc23)CCC1` [Compound 311], the half-maximal inhibitory concentration (IC50) is > 1000 nM.

As a reminder, the IC50 is the midpoint of a concentration-inhibition curve.
